Data taken from patent publication US20230146455A1, “TREATMENT OF INFLAMMATORY DISEASES WITH PEPTIDES AND PHARMACEUTICAL COMPOSITIONS” (Yuyu Pharma, Inc., priority 2020, published 2023).
“And” between values parts separate entries of the source, which are not always exact repeats. Equal values may be shown once. Where a SMILES comes first, the peptide text is derived from it. [ ]: non-standard residue; d: D form. Hyp = O=C(O)[C@@H]1C[C@@H](O)CN1

Legend:
IL-8 = assay: Example 9 Luminex, LPS hPBMCs: IL-8; assay type: cell-based, human
Description: (§1) Treatment Human PBMCs were pretreated with YY-101, YDE-011 and YDE-043 or reference compound; Xiidra® at various concentration (ranging from 1 nM to 100 uM) for 2 h before stimulation. An equal volume of 0.5% DMSO was used as a vehicle control. Then, the cells were treated with LPS at 5 ug/ml. The supernatants from treated cells were harvested at 24 h and placed in a 96 well for Luminex cytokine & chemokine profiling using a Luminex 200 multiplex assay (Luminex; R&D system, USA).
(§2) The main study arm with triplicate wells per group in a 24-well plate: • 1. Blank • 2. PBMC: 0.5% DMSO • 3. PBMC+LPS (5 ug/ml) • 4. PBMC+YY-101 100 uM • 5. PBMC+YY-101 10 uM • 6. PBMC+YY-101 1 uM • 7. PBMC+YY-101 0.1 uM • 8. PBMC+YY-101 0.01 uM • 9. PBMC+LPS (5 ug/ml)+Xiidra®100 uM • 10. PBMC+LPS (5 ug/ml)+Xiidra® 10 uM • 11. PBMC+LPS (5 ug/ml)+Xiidra® 1 uM • 12. PBMC+LPS (5 ug/ml)+Xiidra®0.1 uM • 13. PBMC+LPS (5 ug/ml)+Xiidra®0.01 uM • 14. PBMC+LPS (5 ug/ml)+Xiidra®0.001 uM • 15. PBMC+LPS (5 ug/ml)+YY-101 100 uM • 16. PBMC+LPS (5 ug/ml)+YY-101 10 uM • 17. PBMC+LPS (5 ug/ml)+YY-101 1 uM • 18. PBMC+LPS (5 ug/ml)+YY-101 0.1 uM • 19. PBMC+LPS (5 ug/ml)+YY-101 0.01 uM • 20. PBMC+LPS (5 ug/ml)+YY-101 0.001 uM • 21. PBMC+LPS (5 ug/ml)+YDE-011 100 uM • 22. PBMC+LPS (5 ug/ml)+YDE-011 10 uM • 23. PBMC+LPS (5 ug/ml)+YDE-011 1 uM • 24. PBMC+LPS (5 ug/ml)+YDE-011 0.1 uM • 25. PBMC+LPS (5 ug/ml)+YDE-011 0.01 uM • 26. PBMC+LPS (5 ug/ml)+YDE-011 0.001 uM • 27. PBMC+LPS (5 ug/ml)+YDE-043 100 uM • 28. PBMC+LPS (5 ug/ml)+YDE-043 10 uM • 29. PBMC+LPS (5 ug/ml)+YDE-043 1 uM • 30. PBMC+LPS (5 ug/ml)+YDE-043 0.1 uM • 31. PBMC+LPS (5 ug/ml)+YDE-043 0.01 uM • 32. PBMC+LPS (5 ug/ml)+YDE-043 0.001 uM
(§3) Multiplex assay was used to measure 30 cytokines and chemokines. The 1:2, 1:10 and 1:200 diluted cell supernatant and serial dilution of the standard were dispensed into a 96 well plate at 50 ul/well. Then, the pre-mixed cocktail of antibody-coated magnetic beads was dispensed at 50 ul/well and incubated at room temperature for 2 h in a horizontal orbital microplate shaker at 800±500 rpm. The beads were washed using a magnetic device to prevent loss. The biotin-antibody was dispensed in 50 ul of each well and incubated at room temperature for 1 h in a shaker at 800±500 rpm. After washing, streptavidin-PE was added at 50 ul/well and incubated at room temperature for 30 min in a shaker under the same conditions. Finally, after washing, wash buffer (100 ul/well) was added to the plate and incubated in a shaker for 2 min. The Luminex™ 200 setting were set according to the manufacturer's protocol. The data was calculated with a standard five-parameter logistic nonlinear regression analysis of the data (xPonent software 4.2, USA). The levels of cytokine/chemokine are normalized to the live cell counts (1×10^5 cells/mL) and presented as concentrations per mL (pg/mL or ng/mL).

CCL3/MIP-1 alpha = assay: Example 9 Luminex, LPS hPBMCs: CCL3/MIP-1 alpha; assay type: cell-based, human
Description: as §1, §2, §3

[1] = PBMC + LPS(5 ug/ml) + test article 0.001 uM, Mean
[2] = PBMC + LPS(5 ug/ml) + test article 0.001 uM, single replicates (1st, 2nd, 3rd)
[3] = PBMC + LPS(5 ug/ml) + test article 0.01 uM, Mean
[4] = PBMC + LPS(5 ug/ml) + test article 0.01 uM, single replicates (1st, 2nd, 3rd)
[5] = PBMC + LPS(5 ug/ml) + test article 0.1 uM, Mean
[6] = PBMC + LPS(5 ug/ml) + test article 0.1 uM, single replicates (1st, 2nd, 3rd)
[7] = PBMC + LPS(5 ug/ml) + test article 1 uM, Mean
[8] = PBMC + LPS(5 ug/ml) + test article 1 uM, single replicates (1st, 2nd, 3rd)
[9] = PBMC + LPS(5 ug/ml) + test article 10 uM, Mean
[10] = PBMC + LPS(5 ug/ml) + test article 10 uM, single replicates (1st, 2nd, 3rd)
[11] = PBMC + LPS(5 ug/ml) + test article 100 uM, Mean
[12] = PBMC + LPS(5 ug/ml) + test article 100 uM, single replicates (1st, 2nd, 3rd)
[13] = PBMC + test article 0.01 uM, no LPS, Mean
[14] = PBMC + test article 0.01 uM, no LPS, single replicates (1st, 2nd)
[15] = PBMC + test article 0.1 uM, no LPS, Mean
[16] = PBMC + test article 0.1 uM, no LPS, single replicates (1st, 2nd)
[17] = PBMC + test article 1 uM, no LPS, Mean
[18] = PBMC + test article 1 uM, no LPS, single replicates (1st, 2nd)
[19] = PBMC + test article 10 uM, no LPS, Mean
[20] = PBMC + test article 10 uM, no LPS, single replicates (1st, 2nd)
[21] = PBMC + test article 100 uM, no LPS, Mean
[22] = PBMC + test article 100 uM, no LPS, single replicates (1st, 2nd)
[23] = PBMC + LPS(5 ug/ml) + test article 0.001 uM, individual replicates
[24] = PBMC + LPS(5 ug/ml) + test article 0.01 uM, individual replicates
[25] = PBMC + LPS(5 ug/ml) + test article 0.1 uM, individual replicates
[26] = PBMC + LPS(5 ug/ml) + test article 1 uM, individual replicates
[27] = PBMC + LPS(5 ug/ml) + test article 10 uM, individual replicates
[28] = PBMC + LPS(5 ug/ml) + test article 100 uM, individual replicates
[29] = PBMC + test article 1 uM, no LPS, individual replicates
[30] = PBMC + test article 10 uM, no LPS, individual replicates
[31] = PBMC + test article 100 uM, no LPS, individual replicates

## CC(C)C[C@H](NC(=O)CNC(=O)[C@H](CC(=O)O)NC(=O)[C@H](CCC(N)=O)NC(=O)CNC(=O)[C@@H]1C[C@@H](O)CN1)C(=O)N[C@@H](C)C(=O)NCC(=O)N1CCC[C@H]1C(=O)N[C@@H](CCCCN)C(=O)O [YY-101] (H-[Hyp]GQDGLAGPK-OH; N-terminus and C-terminus assumed)
IL-8; [1]
  Concentration: 47261.8 pg/mL
  conc/live cell: 7362.6 pg/10^5
IL-8; [2]
  Concentration: 45291.5 pg/mL and 44844.4 pg/mL and 51649.5 pg/mL
  conc/live cell: 7945.9 pg/10^5 and 6316.1 pg/10^5 and 7825.7 pg/10^5
IL-8; [3]
  Concentration: 45595.7 pg/mL
  conc/live cell: 7399.0 pg/10^5
IL-8; [4]
  Concentration: 45499.3 pg/mL and 44844.4 pg/mL and 46443.3 pg/mL
  conc/live cell: 7109.3 pg/10^5 and 7474.1 pg/10^5 and 7613.7 pg/10^5
IL-8; [5]
  Concentration: 41918.3 pg/mL
  conc/live cell: 7205.6 pg/10^5
IL-8; [6]
  Concentration: 41283.9 pg/mL and 42997.0 pg/mL and 41473.9 pg/mL
  conc/live cell: 6658.7 pg/10^5 and 8268.7 pg/10^5 and 6689.3 pg/10^5
IL-8; [7]
  Concentration: 46108.9 pg/mL
  conc/live cell: 7089.9 pg/10^5
IL-8; [8]
  Concentration: 45195.7 pg/mL and 45259.6 pg/mL and 47871.4 pg/mL
  conc/live cell: 7173.9 pg/10^5 and 6374.6 pg/10^5 and 7721.2 pg/10^5
IL-8; [9]
  Concentration: 46679.5 pg/mL
  conc/live cell: 7101.0 pg/10^5
IL-8; [10]
  Concentration: 46315.2 pg/mL and 50742.2 pg/mL and 42981.1 pg/mL
  conc/live cell: 7719.2 pg/10^5 and 7928.5 pg/10^5 and 5655.4 pg/10^5
IL-8; [11]
  Concentration: 46500.3 pg/mL
  conc/live cell: 8028.8 pg/10^5
IL-8; [12]
  Concentration: 48337.8 pg/mL and 46988.3 pg/mL and 44174.7 pg/mL
  conc/live cell: 7672.7 pg/10^5 and 7578.8 pg/10^5 and 8834.9 pg/10^5
IL-8; [13]
  Concentration: 4859.1 pg/mL
  conc/live cell: 989.4 pg/10^5
IL-8; [14]
  Concentration: 2863.8 pg/mL and 6854.4 pg/mL
  conc/live cell: 550.7 pg/10^5 and 1428.0 pg/10^5
IL-8; [15]
  Concentration: 4413.2 pg/mL
  conc/live cell: 835.0 pg/10^5
IL-8; [16]
  Concentration: 2701.4 pg/mL and 6125.1 pg/mL
  conc/live cell: 614.0 pg/10^5 and 1056.0 pg/10^5
IL-8; [17]
  Concentration: 4580.5 pg/mL
  conc/live cell: 832.8 pg/10^5
IL-8; [18]
  Concentration: 4461.8 pg/mL and 4699.1 pg/mL
  conc/live cell: 811.2 pg/10^5 and 854.4 pg/10^5
IL-8; [19]
  Concentration: 21138.7 pg/mL
  conc/live cell: 3322.0 pg/10^5
IL-8; [20]
  Concentration: 37311.2 pg/mL and 4966.2 pg/mL
  conc/live cell: 5829.9 pg/10^5 and 814.1 pg/10^5
IL-8; [21]
  Concentration: 15311.8 pg/mL
  conc/live cell: 2320.9 pg/10^5
IL-8; [22]
  Concentration: 19929.7 pg/mL and 10693.9 pg/mL
  conc/live cell: 3114.0 pg/10^5 and 1527.7 pg/10^5
CCL3/MIP-1 alpha; [1]
  Concentration: 26885.9 pg/mL
  conc/live cell: 4200.1 pg/10^5
CCL3/MIP-1 alpha; [23]
  Concentration: 27986.1 pg/mL and 27195.8 pg/mL and 25475.7 pg/mL
  conc/live cell: 4909.8 pg/10^5 and 3830.4 pg/10^5 and 3860.0 pg/10^5
CCL3/MIP-1 alpha; [3]
  Concentration: 28932.4 pg/mL
  conc/live cell: 4694.7 pg/10^5
CCL3/MIP-1 alpha; [24]
  Concentration: 29329.0 pg/mL and 29395.7 pg/mL and 28072.3 pg/mL
  conc/live cell: 4582.7 pg/10^5 and 4899.3 pg/10^5 and 4602.0 pg/10^5
CCL3/MIP-1 alpha; [5]
  Concentration: 28457.4 pg/mL
  conc/live cell: 4886.3 pg/10^5
CCL3/MIP-1 alpha; [25]
  Concentration: 28362.4 pg/mL and 28665.1 pg/mL and 28344.5 pg/mL
  conc/live cell: 4574.6 pg/10^5 and 5512.5 pg/10^5 and 4571.7 pg/10^5
CCL3/MIP-1 alpha; [7]
  Concentration: 28059.0 pg/mL
  conc/live cell: 4314.1 pg/10^5
CCL3/MIP-1 alpha; [26]
  Concentration: 28714.8 pg/mL and 27440.0 pg/mL and 28022.0 pg/mL
  conc/live cell: 4557.9 pg/10^5 and 3864.8 pg/10^5 and 4519.7 pg/10^5
CCL3/MIP-1 alpha; [9]
  Concentration: 29972.3 pg/mL
  conc/live cell: 4549.0 pg/10^5
CCL3/MIP-1 alpha; [27]
  Concentration: 30117.5 pg/mL and 30769.7 pg/mL and 29029.8 pg/mL
  conc/live cell: 5019.6 pg/10^5 and 4807.8 pg/10^5 and 3819.7 pg/10^5
CCL3/MIP-1 alpha; [11]
  Concentration: 33310.8 pg/mL
  conc/live cell: 5765.5 pg/10^5
CCL3/MIP-1 alpha; [28]
  Concentration: 35374.6 pg/mL and 31775.7 pg/mL and 32782.2 pg/mL
  conc/live cell: 5615.0 pg/10^5 and 5125.1 pg/10^5 and 6556.4 pg/10^5
CCL3/MIP-1 alpha; [13]
  conc/live cell: 0.0 pg/10^5
CCL3/MIP-1 alpha; [15]
  conc/live cell: 0.0 pg/10^5
CCL3/MIP-1 alpha; [17]
  Concentration: 588.0 pg/mL
  conc/live cell: 53.5 pg/10^5
CCL3/MIP-1 alpha; [29]
  Concentration: 588.0 pg/mL
  conc/live cell: 106.9 pg/10^5 and 0.0 pg/10^5
CCL3/MIP-1 alpha; [19]
  Concentration: 1997.0 pg/mL
  conc/live cell: 156.0 pg/10^5
CCL3/MIP-1 alpha; [30]
  Concentration: 1997.0 pg/mL
  conc/live cell: 312.0 pg/10^5 and 0.0 pg/10^5
CCL3/MIP-1 alpha; [21]
  Concentration: 1030.2 pg/mL
  conc/live cell: 80.5 pg/10^5
CCL3/MIP-1 alpha; [31]
  Concentration: 1030.2 pg/mL
  conc/live cell: 161.0 pg/10^5 and 0.0 pg/10^5
